Counter-ions that a name gives are not always drawn.
Tests used:
[1] = tested on: human neuroblastoma cells; settings: in the absence of any detectable cellular damage or toxicity; cited from earlier work
[2] = tested on: patients with moderate-to-severe AD; settings: 24 weeks; groups of 202 and 201
[3] = tested on: patients with moderate-to-severe AD; settings: Week 24; memantine 20 mg/day or placebo added to stable donepezil
[4] = tested on: patients with moderate-to-severe AD; settings: Week 24; memantine 20 mg/day or placebo added to stable donepezil; remark: listed apart in the source
[5] = 5 mg/day for 28 days in healthy subjects; cited from earlier work
[6] = tested on: patients with moderate-to-severe AD; settings: Week 24; memantine 20 mg/day or placebo added to stable donepezil; remark: listed apart in the source
[7] = tested on: human neuroblastoma cells SK-N-SH; test: Cell viability and toxicity, MTT and LDH assays; settings: memantine 1-4 μM
clinical = settings: both, human, plasma, po
[8] = tested on: human neuroblastoma cells SK-N-SH; test: APP processing in cultured SK-N-SH cells (Western immunoblotting or ELISA); format: cell-based; settings: memantine 1-4 μM
Method: NMDA receptors have been also implicated in the signalling cascades affecting or affected by APP processing. […] The present inventor and co-workers have studied the effect of memantine (NMDA receptor antagonist) on the processing of APP in cultured human neuroblastoma cells SK-N-SH. Cells were treated with memantine (1-4 μM) or vehicle, and the levels of sAPP and βAP40 in the conditioned media and the total intracellular APP were measured by Western immunoblotting or ELISA using specific antibodies.

healthy young subjects = settings: single 10 mg memantine alone or with multiple daily doses of 10 mg donepezil
[9] = humans; cited from earlier work
cytochrome P450 system = settings: in vitro studies; cited from earlier work
[10] = cited from earlier work

Cl.Nc1c2c(nc3ccccc13)CCCC2 [tacrine, 1,2,3,4-tetrahydro-9-aminoacridine hydrochloride]
release of sAPPα, total βAP, βAP40 and βAP42 [1]: reduce

COc1cc2c(cc1OC)C(=O)C(CC1CCN(Cc3ccccc3)CC1)C2 (racemic) [donepezil, (R,S)-1-benzyl-4-[(5,6-dimethoxy-1-indanon)-2yl]-methylpiperidine hydrochloride]
Agitation, % [2]: (11.9) % | Confusion, % [2]: (2.0) % | Constipation, % [2]: (1.5) % | Coughing, % [2]: (1.0) % | Depression, % [2]: (3.0) % | Diarrhoea, % [2]: (8.5) % | Dizziness, % [2]: (8.0) % | Fall, % [2]: (7.0) % | Fatigue, % [2]: (3.5) % | Gait abnormal, % [2]: (1.0) % | Headache, % [2]: (2.5) % | Hypertension, % [2]: (1.5) % | Inflicted injury, % [2]: (8.0) % | Influenza-like symptoms, % [2]: (6.5) % | Oedema peripheral, % [2]: (4.0) % | Pain, % [2]: (0.5) % | Pat. with any AE, % [2]: (71.6) % | Somnolence, % [2]: (3.5) % | Upper resp. tract infection, % [2]: (6.5) % | Urinary incontinence, % [2]: (3.0) % | Urinary tract infection, % [2]: (5.0) % | Vomiting, % [2]: (3.0) % | SIB, change from Baseline to Endpoint (LOCF), LS mean change (SE) [3]: −2.5 (0.69) | CIBIC-Plus at Endpoint (LOCF), LS mean (SD) [4]: 4.7 (1.05) | time of peak plasma concentrations [5]: approximately 3 hours | ADCS-ADL, change from Baseline to Endpoint (LOCF), LS mean change (SE) [6]: −3.4 (0.51)

CC12CC3CC(C)(C1)CC(N)(C3)C2 [memantine, 1-amino-3,5-dimethyl adamantane]
cell viability and toxicity (MTT and LDH assays) [7]: not affected | Cmax (clinical): 13 ng/mL | Cmax (clinical; 10 mg): 12.8 ng/mL | Tmax (clinical; 10 mg): 6.5 h | levels of total intracellular APP [8]: without affecting | sAPP level in the conditioned media [8]: decrease | βAP40 level in the conditioned media [8]: decrease | safety and tolerability (healthy young subjects): safe and well-tolerated | therapeutically effective circulating concentration [9]: 1 µM | potential of drug interactions with drugs metabolized via the cytochrome P450 system (cytochrome P450 system): low potential | dose recovered, mainly in the urine ([10]; after administration of 14C memantine): 84% | absolute bioavailability ([10]; in vivo, po): approximately 100% | half-life ([10]; in vivo): 60 to 80 h

From patent publication US20090124659A1, “Combination therapy using 1-aminocyclohexane derivatives and acetylcholinesterase and inhibitors” (priority 2002, published 2009)
